According to patent US20190076440A1, “TREATMENT OF TISSUE DISORDERS” (priority 2016, published 2019):

Experiments:
[1] = tested on: cells expressing wild-type (WT) or N617K collagen X; assay: General protein synthesis rates in cells expressing collagen X; type: cell-based; details: CBZ for 24 hours
Method: FIG. 5 illustrates the effect of CBZ treatment in vitro (a) Cell viability of cell treated with 20 μM CBZ. (b) Collagen X mRNA level of HeLa cells transiently transfected with a rang of collagen X mutations in the presence or absence of CBZ for 24 hours. (c) General protein synthesis rates of cells expressing wild-type (WT) or N617K collagen X and treated with CBZ for 24 hours. UTF=untransfected cell controls. Mean±SEM of three independent experiments in each case.

[2] = tested on: MCDS mice (homozygous N617K collagen X mutation); assay: Tibial growth plate histology, immunohistochemistry, in situ hybridisation and TRAP staining in MCDS mice; type: in vivo, mouse
Method: (§1) FIG. 2 illustrates the effect of carbamazepine on the growth plate pathology associated with MCDS. 3 week old MCDS mice were treated with CBZ for a period of one week. Untreated MCDS mice and mice wild-type for collagen X (WT) were used as controls. (a) H+E staining of the tibial growth plate at 4 weeks of age. (b) Immunohistochemistry for Grp78 and (c) Immunohistochemistry for collagen X. Yellow bars show the hypertrophic zone. Scale bars equal to 100 μM in all cases. (d) is a table showing growth plate zone measurements at 4 weeks of age. Mean±SEM. Number of animals shown in brackets. Significance between mutant untreated mice and treated mice shown by the asterisk. (e) Western blots of rib growth plate cartilage at 4 weeks of age for Grp78, ATF4, p62/SQSTM1 and LC3-II alongside the associated coomassie blue stain used as a loading control. Quantification of these blots against the coomassie protein level is shown in supplementary S4. (f) X-ray images of the pelvis at 6 weeks of age. The angle between the lines was measured in a minimum of 5 animals and a graph showing the mean±SEM is shown in (g). Graphs showing the percentage increase in growth of the (h) tibia and (i) femur from 3 weeks of age.
FIG. 3 illustrates the effect of carbamazepine on chondrocyte differentiation MCDS mice were treated with CBZ for 1 week. In situ hybridisation for a) collagen X mRNA levels b) Collagen II mRNA levels c) Osteopontin mRNA levels d) MMP13 mRNA levels. e) TRAP staining for osteoclast number, osteoclasts shown by the white asterisks. (f) Quantification of the number of osteoclasts per mm of vascular invasion front. Mean±SEM. (g) H+E image showing the terminal hypertrophic chondrocytes at the vascular invasion front. g) The height of the most terminal hypertrophic chondrocytes (within the red bracket) was measured, and mean±SEM is shown in (h). Hypertrophic zone marked by the yellow bar. Vascular invasion front shown by the orange line. Scale bar equal to 100 μM in all cases. Mean±SEM (*P<0.05 **P<0.005 ***P<0.0005).
(§2) The generation and genotyping of the Col10a1 p.N617K mouse line has been described previously (Rajpar et al 2009). Mice homozygous for the MCDS-causing N617K collagen X mutation were x-rayed at 3 weeks of age and treated with carbamazepine (250 mg/kg/day) for up to 21 days via a subcutaneous implantation of a slow-release pellet (Innovative research of America USA C-113) whilst the mouse was under anaesthetic. The incision was sutured closed, glued using Vetbond tissue adhesive (Santa-Cruz sc-361931) and the mice given an appropriate dose of buprenorphine painkiller depending on their body weight. Male mice were X-rayed once per week in order monitor bone growth; female mice were sacrificed after 1 week of treatment either by cervical dislocation or by carbon dioxide overdose under the provisions of the Animals (Scientific Procedures) Act 1986 and tissues collected for histological analysis. All procedures were carried out according to Home Office regulations.
Hind limbs were dissected and fixed overnight in ice-cold 4% paraformaldehyde (w/v) in 1×DEPC-PBS or 95% ethanol/5% acetic acid (v/v), and decalcified in 0.8 M ethyl-diamine tetracetic acid (EDTA) pH 7.4 for a period of one week. The samples were embedded in paraffin wax and sectioned sagittally using a cool-cut HM 355 S microtime (MicRom) generating 5 μm thick sections. Sections were collected on positively charged superfrost slides (VWR) and dried overnight prior to histological staining, immunohistochemistry or in situ hybridisation.
H+E staining was performed as described previously ^10 and images taken using a Carl Zeiss Axiovision microscope fitted with an Axiocam colour CCD camera and associated Axiovision software.
Growth plate zone widths were measured on images of known magnification as described previously (Rajpar et al 2009). […]

[3] = tested on: MCDS mice (homozygous N617K collagen X mutation); assay: Skeletal measurements by X-ray (hip dysplasia angle, bone growth) in MCDS mice; type: in vivo, mouse
Method: as §1, §2
Mice were anaesthetised using isofluorane, placed on X-Ray hyperfilm (GE healthcare, GZ28906850) and X-Rayed using a Flaxitron X-ray specimen radiography system (Flaxitron MX-20). X-Rays were performed prior to implantation and once per week for a maximum of 3 weeks. The analysis of the skeleton was done using Growbase software (Certus Technology Associated Limited, UK) to calculate the length of the femur, tibia and inner canthal distance. The bone growth rate was determined as a percentage increase relative to measurements at 3 weeks of age. Image J was used to analyse the angle of deflection from the vertical tuberosity of the ischium to determine the severity of the hip dysplasia phenotype. All measurements were analysed by ANOVA to determine significance using GraphPad Prism 6.0 software.

[4] = tested on: wild type (+/+) or Col1a2 p.G610C (+/-) osteoblast cells; assay: Cellular stress assay: CHOP expression by qPCR in osteoblasts; type: cell-based, mouse; details: 20 μM CBZ, 21 days, relative to DMSO controls
Method: Cells were incubated for 21 days with 20 μM CBZ before extracting RNA and quantification by qPCR. Each data point represents a separate biological replicate. Error bars show standard error of mean. *=p<0.05.
Expression levels of CCAAT-enhancer binding protein homologous protein (CHOP) was measured. Wild type (+/+) or Col1a2 p.G610C (+/−) cells were incubated in osteogenic differentiation media for 21 days with or without 20 μM CBZ.
RNA was extracted from the cells after 21 days and the levels of Chop gene expression was quantified by qPCR using a protocol as previously described herein.

R992C Col2a1 SEDC mice = assay: TUNEL assay of chondrocyte apoptosis in the tibial growth plate of SEDC mice; type: in vivo; details: single treated mouse, no quantitative analysis
Method: The effect of CBZ on p.R992C Col2a1 mutant mice (spondyloepiphyseal dysplasia congenital (SEDC) model mice) was tested.
R992C Col2a1 SEDC mice were treated with carbamazepine (CBZ), to determine whether treatment ameliorates the disease phenotype. Increased chondrocyte apoptosis within the epiphyseal growth plate is associated with the onset of disease from 3 weeks in mouse models expressing this mutant form of COL2A1.
Chondrocyte apoptosis was detected by a Terminal deoxynucleotide transferase dUTP nick end labelling (TUNEL) assay. Tibial growth plates from wild type and SEDC mutant mice were stained according to the manufactures instructions before being imaged (data not shown).

[5] = tested on: Cells carrying a COL4A2 missense mutation; assay: BIP and ATF6 expression and protein in cells carrying a COL4A2 missense mutation; type: cell-based; details: 50 μM CBZ, data not shown
Method: Cells carrying a COL4A2 missense mutation (which causes haemorrhagic stroke) are treated with 50 μM CBZ. After treatment expression of BIP and ATF 6 are determined by qPCR and mRNA analysis and levels of BIP and ATF6 protein are determined by SDS-PAGE and western blot analysis as previously described herein.

[6] = 3 weeks of treatment, vs untreated

## NC(=O)N1c2ccccc2C=Cc2ccccc21 [CBZ, Carbamazepine]
[1]
  rates of general protein synthesis: did not affect
[2]; 250 mg/kg body weight/day, 1 week, vs untreated MCDS controls
  size of the hypertrophic zone: significant reduction
[2]; 1 week
  BiP protein in growth plate sections (immunostaining): reduced
[2]; CBZ for 1 week
  expression pattern of collagen X, collagen II, OPN and MMP13 (in situ hybridisation): altered the expression pattern of each of these markers towards that seen in the WT mouse
  hypertrophy, based on the height of the terminal hypertrophic chondrocytes: enhanced
  osteoclast recruitment to the vascular invasion front (TRAP staining): partially restored
[2]; tibial growth plate, 1 week
  level of extracellular collagen X (immunohistochemistry): no overt increase
  level of intracellular collagen X (immunohistochemistry): reduced
[3]; [6]
  fold increase in the rate of femur bone growth: 1.44 fold
  fold increase in the rate of tibial bone growth: 1.25 fold
[3]; 3 weeks, mean±SEM, n=6, untreated 25.6±1.3, p<0.05
  % increase in bone length over treatment period, tibia: 32.7 ±1.6%
[3]; 3 weeks, mean±SEM, n=6, untreated 27.8±2.3, p<0.05
  % increase in bone length over treatment period, femur: 40.1±2.0%
[3]; CBZ for 3 weeks, 6 weeks of age, untreated MCDS 31.6°, WT 7.7°
  angle of deflection of the ischial tuberosity (hip dysplasia): 25.4 °
[4]
  Chop expression: significantly decreased
R992C Col2a1 SEDC mice
  level of apoptosis in tibial growth plate chondrocytes (TUNEL): did not necessarily reduce
[5]; qPCR
  ATF6 expression: decreased level
  BIP expression: decreased level
[5]; western blot
  ATF6 protein level: decreased level
  BIP protein level: decreased level
